Experimental data taken from US9587002B2, “Sequence of nucleotides and peptides GSE 24.2 of dyskerin, which can induce telomerase activity, method for obtaining same, therapeutic compositions and applications thereof” (CONSEJO SUPERIOR DE INVESTIGACIONES CIENTIFICAS, priority 2005, dated 2017).

What was measured:
293T cells = assay: Cell viability of 293T cell lines treated with cisplatin (crystal violet); format: cell-based, human; conditions: 293T cells stably expressing the construct vs empty vector pLNCX; cisplatin 0-100 μg/ml, 72 hours
Description: FIG. 2.—Cell viability and activation of the JNK and p38 death pathways in 293T cell lines: pLNCX and 24.2, treated with cisplatin. A) Cell viability. After seeding the 293T cells: expressing the empty vector (pLNCX) and GSE 24.2 (24.2) in 24-well plates, they were incubated with concentrations between 0-100 μg/ml of cisplatin. The cell viability was measured by means of the crystal violet technique after 72 hours of exposure to the drug. The data represent the mean of two experiments performed in quadruplicate. B) Activation kinetics. Subsequently, the activation of JNK and p38 was studied using antibodies that specifically recognise the active forms. As a load control, the levels of JNK-1 were detected.
FIG. 4.—Viability of the 293T cell lines: pLNCX, 24.2, DSK5′ and DSK treated with cisplatin. The cell lines described above (pLNCX and 24.2), the DSK 5′ cell line, which expresses a fragment of dyskerin described in the preceding figure, and a fourth one that overexpresses the complete cDNA of dyskerin (DSK) have been used. The viability was analyzed as shown in FIG. 1 A. The data represent the mean of two experiments performed in quadruplicate. […]
Growth curves. […] The number of cells was determined by estimating the absorbance at 595 nm. […]

hTERT promoter [1] = assay: hTERT-luc reporter assay in VA13 cells; format: cell-based; conditions: co-transfection with hTERT-luc, 24 h
Description: FIG. 10.—Telomerase activity and expression levels of hTERT and hTR in the cells of patients with dyskeratosis congenita and in VA13 cells transiently transfected with the 24.2 plasmid or the pLNCX empty vector. A) Telomerase activity measured by means of the TRAP assay in the cells of patients with dyskeratosis congenita (DC-1, DC-2 and DC-3) and in the carrier parent (DC-C) following electroporation of 45 μg of the pLNCX empty plasmid (−) or the pLNCX 24.2 vector (+) by 15 million cells. B) RT-PCR of the RNA from cells of one of the patients with dyskeratosis congenita, DC3 transfected with the empty vector and DC3 transfected with the 24.2 plasmid, using oligos specific for hTERT and hTR. As a starting RNA control, oligos for the amplification of GAPDH were used. C) Telomerase activity in VA13 cells. […] 24 hours later, the telomerase activity was analysed as described above, using dilutions of the protein extracts from each transfection. […] RNA levels were detected as described above. […] After 24 h of transfection, the luciferase activity was analyzed as described above. […]
Luciferase assay. The transcriptional regulation of hTERT was measured by means of the Luciferase reporter gene, preceded by a 3,402-pb sequence of the hTERT promoter. […] The cell lysates were centrifuged and the expression of luciferase was quantified with 10 μg of protein from the supernatant, using a Berthold luminometer. […]

hTERT promoter [2] = assay: hTERT-luc reporter (luciferase) assay in 293T cells; format: cell-based, human; conditions: 293T cells transiently transfected with construct vs empty vector; hTERT-luc, 24 hours
Description: FIG. 8.—Activity of the hTERT promoter in the 293T cell lines: pLNCX and 24.2 and in 293T cells transiently transfected with the pLNCX-24.2 construct and the pLNCX empty plasmid. A) Both the pLNCX and the 24.2 cells were transiently transfected with 0.25 μg of the hTERT-luc reporter vector. The cells were seeded in 60-mm plates. After 24 hours of transfection, the cells were lysed and the luciferase activity of 10 μg of total protein was quantified. As a transfection control, the cells were co-transfected with a reporter vector, CMV-Renilla. B) The 293T cells were transfected with the pLNCX vector and the 24.2 plasmid (5 μg), and both were co-transfected with 0.25 μg of the hTERT-luc reporter vector. After seeding the cells as in A, they were transfected with pLNCX and 24.2, and co-transfected with the hTERT-luc reporter vector; subsequently, they were treated as in A. As a transfection control, the CMV-Renilla reporter vector was used. The data correspond to the ratio of relative units of luciferase with respect to non-transfected cells. Each point represents the mean±the standard deviation obtained from 3 independent experiments. C) The 293T cells were transfected with the different GSE 24.4, DSK, TRUB I, TRUB II constructs and the pLNCX empty plasmid (5 μg), and co-transfected with 0.25 μg of the hTERT-luc reporter vector. The cells were seeded in 60-mm plates; after 24 hours of transfection, the cells were lysed and the luciferase activity of 10 μg of total protein was quantified. As a transfection control, the cells were co-transfected with a CMV-Renilla reporter vector. The data correspond to the ratio of relative units of luciferase with respect to non-transfected cells. Each point represents the mean±the standard deviation obtained from 3 independent experiments.
FIG. 9.—Activity of the hTERT promoter following treatment with cisplatin. A) Both the pLNCX cell line and the 24.2 cell line were transiently transfected with 0.25 μg of the hTERTIuc reporter vector. After 24 hours of transfection, they were treated with 3 μg/ml of cisplatin for 8 hours. The cells were seeded in 60-mm plates; after 24 hours of transfection and following treatment with cDDP, the cells were lysed and the luciferase activity of 10 μg of total protein was quantified. As a transfection control, the cells were co-transfected with a CMV-Renilla reporter vector. B) 293T cells which, after being transiently transfected with pLNCX and 24.2, were co-transfected with 0.25 μg of the hTERT-luc reporter vector and treated as in A. After seeding the cells as in A, they were transfected with pLNCX and 24.2, and co-transfected with the hTERT-luc reporter vector; subsequently, they were treated as in A. As a transfection control, the CMV-Renilla reporter vector was used. The data correspond to the ratio of relative units of luciferase with respect to non-transfected cells. Each point represents the mean±the standard deviation obtained from 3 independent experiments.
A) The 293T cells were co-transfected with different constructs (10 μg/DNA per million cells) and the hTERT-luc reporter (1 μg per million cells). The specified cell lines were co-transfected with the hTERT-luc reporter and different quantities of the Mad/myc expression vector. (B) The specified cell lines were co-transfected with the HIV-luc reporter and with different quantities of the Mad/myc expression vector. After 24 h of transfection, the cells were stimulated with 50 ng/ml of TNF-α for 6 hours and the luciferase activity was analysed as described above. CMV-Renilla (0.1 μg/ml per million cells) was used as a control for the transfection efficiency. The data represent the mean of two experiments performed in quadruplicate.
The pseudouridine synthase TRUB domain of dyskerin comprises two structural subdomains: the Trub I and II motifs (Zucchini et al., 2003). These two domains are critical to maintain the global protein structure of dyskerin. […]

DSK 5′: construct containing the first 500 nucleotides of human dyskerin, cloned in pLNCX [reference compound]
cell viability in response to cisplatin (293T cells): do not have any activity whatsoever

Trub I: fragment of GSE 24.2 containing the Trub I domain (SEQ ID NO11, peptide SEQ ID NO12) (DNA GGTTTCATTAATCTTGACAAGCCCTCTAACCCCTCTTCCCATGAGGTGGTAGCC; expressed or natural sequence; listed as Homo sapiens)
activity of the hTERT promoter in VA13 cells (hTERT promoter [1]): activated the hTERT promoter
activity of the hTERT promoter, transient expression (hTERT promoter [2]): act by activating the expression of the hTERT promoter

B1: Trub II: fragment of GSE 24.2 containing the Trub II domain (SEQ ID NO13, peptide SEQ ID NO14) (nucleic acid, listed as Homo sapiens)
DNA: CACAGTGGTACTCTGGATCCCAAGGTGACTGGTTGTTTAATCGTGTGCATAGAACGAGCCACTCGCTTGGTGAAG
modifications: expressed or natural sequence
activity of the hTERT promoter, transient expression (hTERT promoter [2]): act by activating the expression of the hTERT promoter
